Data published in US20250304537A1 (Repare Therapeutics Inc., priority 2022, published 2025).
Like-named read-outs stand apart in the source and are kept apart here.

Tested on: PKMYT1 (CDK1 pThr14) in FUOV1 cells
Assay: PKMYT1 cell-based activity assay, CDK1 pThr14 AlphaLISA in FUOV1 cells
Conditions: read-out: FUOV-1 CDK1 pThr14 IC50
Outline: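 IC50 was derived from AlphaLISA signal (excitation 680 nm, emission 615 nm) for phospho-Thr14 CDK1 in lysates. The detection antibodies were rabbit anti-pThr14 and mouse anti-total CDK1, each at 5 nM. FUOV1 ovarian cells were exposed to compound for 2 hours before lysis.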

SMILES	IC50 (2 h, 2 h compound incubation)	also measured
Cc1ccc2[nH]ncc2c1-c1nc(-c2cccnc2N[C@@H]2CCOC2)nc(C(N)=O)c1N [Compound 547]	50 nM	–
Cc1ccc2[nH]ncc2c1-c1nc(-c2cc(F)cnc2N[C@@H]2C[C@@H]3CC[C@H]2O3)nc(C(N)=O)c1N [Compound 890]	–	IC50 (2 hours with compound): 81 nM
Cc1ccncc1Nc1cc(F)ccc1-c1nc(C(N)=O)c(N)c(-c2c(C)ccc3[nH]ncc23)n1 [Compound 664]	41 nM	–
Cc1ccc2[nH]ncc2c1-c1nc(-c2cccnc2NCC2CCOCC2)nc(C(N)=O)c1N [Compound 593]	297 nM	–
Cc1ccc2[nH]ncc2c1-c1nc(-c2ccc(C#N)nc2Nc2ncccn2)nc(C(N)=O)c1N [Compound 745]	140 nM	–
Cc1ccc2[nH]ncc2c1-c1nc(-c2cccnc2NC2CC(F)(F)C2)nc(C(N)=O)c1N [Compound 675]	53 nM	–
Cc1ccc2[nH]ncc2c1-c1nc(-c2cccnc2Nc2cccc(C#N)c2)nc(C(N)=O)c1N [Compound 630]	150 nM	–
Cc1ccc2[nH]ncc2c1-c1nc(-c2ccc(F)cc2Nc2nncs2)nc(C(N)=O)c1N [Compound 579]	13 nM	–
Cc1ccc2[nH]ncc2c1-c1nc(-c2ccc(F)cc2Nc2nnccc2C#N)nc(C(N)=O)c1N [Compound 539]	20 nM	–
Cc1ccc2[nH]ncc2c1-c1cc2c(oc3ccc(OCc4cccnc4)nc32)c(C(N)=O)c1N [Compound 569, 7-amino-8-(5-methyl-1H-indazol-4-yl)-2-(pyridin-3-ylmethoxy)benzofuro[3,2-b]pyridine-6-carboxamide]	712 nM	–
Cc1ccc2[nH]ncc2c1-c1cc2c(oc3ccc(OC4CCOCC4)nc32)c(C(N)=O)c1N [Compound 635]	402 nM	–
Cc1ccc2[nH]ncc2c1-c1nc(-c2ccc(F)cc2NC(=O)C2(C)CCCO2)nc(C(N)=O)c1N (centres unmarked) [Compound 528]	118 nM	–
Cc1cc(F)c2[nH]ncc2c1-c1nc(-c2ccc(C(F)F)nc2Nc2ncccn2)nc(C(N)=O)c1N [Compound 907]	–	IC50 (2 h, 2 hours with compound): 214 nM
Cc1ccc2[nH]ncc2c1-c1nc(-c2cc(F)cnc2NCC2(O)CC2)nc(C(N)=O)c1N [Compound 692]	195 nM	–
Cc1cc(F)c2[nH]ncc2c1-c1nc(-c2ccc(F)cc2Nc2ncccc2C#N)nc(C(N)=O)c1N [Compound 880]	–	IC50 (2 h, 2 hours with compound): 8 nM
Cc1ccc2[nH]ncc2c1-c1cc(-c2ccnc(OCc3ccco3)n2)nc(C(N)=O)c1N [Compound 213]	–	IC50 (2 h, 2 h incubation): 404 nM
COCC(COC)Nc1cc(F)c(F)cc1-c1nc(C(N)=O)c(N)c(-c2c(C)ccc3[nH]ncc23)n1 [Compound 508]	622 nM	–
[2H]C([2H])([2H])c1ccc2[nH]ncc2c1-c1nc(-c2ccc(C3CC3)nc2Nc2ncccn2)nc(C(N)=O)c1N [Compound 974, 5-amino-2-(6-cyclopropyl-2-(pyrimidin-2-ylamino)pyridin-3-yl)-6-(5-(methyl-d3)-1H-indazol-4-yl)pyrimidine-4-carboxamide]	–	IC50 (2 h, 2 hours with compound): 186 nM
Cc1ccc2[nH]ncc2c1-c1nc(-c2cc(F)ccc2Nc2cnn(C)c2)nc(C(N)=O)c1N [Compound 521]	582 nM	–
NC(=O)c1nc(-c2ccc(Cl)nc2Nc2ncccc2F)nc(-c2c(F)ccc3[nH]ncc23)c1N [Compound 965]	–	IC50 (2 h, 2 hours with compound): 8 nM
Cc1ccc(-c2nc(C(N)=O)c(N)c(-c3c(C)ccc4[nH]ncc34)n2)c(Nc2nccnc2Cl)n1 [Compound 721]	4 nM	–

SMILES	IC50 (2 h, 2 h compound incubation)	also measured
Cc1ccc2[nH]ncc2c1-c1nc(-c2cc(F)cnc2N[C@H]2C[C@H]3CC[C@@H]2O3)nc(C(N)=O)c1N [Compound 891]	–	IC50 (2 h, 2 hours with compound): 22 nM
Cc1ccc2[nH]ncc2c1-c1nc(-c2ccc(Cl)nc2N[C@H]2C[C@@](C)(O)C2)nc(C(N)=O)c1N [Compound 772]	113 nM	–
Cc1ccc2[nH]ncc2c1-c1nc(-c2cc(Cl)ncc2Nc2ncccc2F)nc(C(N)=O)c1N [Compound 939]	–	IC50 (2 h, 2 hours with compound): 9 nM
Cc1c(F)cc2[nH]ncc2c1-c1nc(-c2cc(F)c(F)cc2NC(=O)C2(C(F)(F)F)CC2)nc(C(N)=O)c1N [Compound 509]	285 nM	–
Cc1ccc2[nH]ncc2c1-c1nc(-c2ccc(C#N)cc2Nc2cccnn2)nc(C(N)=O)c1N [Compound 765]	23 nM	–
NC(=O)c1nc(-c2ccc(F)nc2Nc2ncccc2F)nc(-c2c(Cl)ccc3[nH]ncc23)c1N [Compound 913]	–	IC50 (2 h, 2 hours with compound): 8 nM
Cc1cc(F)c2[nH]ncc2c1-c1nc(-c2cc(F)cnc2N[C@H]2CCOC2)nc(C(N)=O)c1N [Compound 869]	–	IC50 (2 h, 2 hours with compound): 55 nM
C[C@]1(O)C[C@@H](Nc2nc(Cl)ccc2-c2nc(C(N)=O)c(N)c(-c3c(Cl)ccc4[nH]ncc34)n2)C1 [Compound 790]	271 nM	–
Cc1ccc(-c2nc(C(N)=O)c(N)c(-c3c(C)ccc4[nH]ncc34)n2)c(Nc2ncccc2F)n1 [Compound 911]	–	IC50 (2 h, 2 hours with compound): 1 nM
Cc1ccc2[nH]ncc2c1-c1nc(-c2cccnc2Nc2nc(F)ccc2F)nc(C(N)=O)c1F [Compound 500, 2-(2-((3,6-difluoropyridin-2-yl)amino)pyridin-3-yl)-5-fluoro-6-(5-methyl-1H-indazol-4-yl)pyrimidine-4-carboxamide]	437 nM	–
Cc1ccc2[nH]ncc2c1-c1nc(-c2cc(F)cnc2N[C@@H]2C[C@H]3CC[C@@H]2O3)nc(C(N)=O)c1N [Compound 836]	–	IC50 (2 hours with compound): 15 nM
Cc1cnc(C)c(Nc2cc(C#N)ccc2-c2nc(C(N)=O)c(N)c(-c3c(C)ccc4[nH]ncc34)n2)n1 [Compound 750]	73 nM	–
Cc1ccccc1Nc1ncccc1-c1nc(C(N)=O)c(N)c(-c2c(C)ccc3[nH]ncc23)n1 [Compound 657]	70 nM	–
Cc1ccc2[nH]ncc2c1-c1nc(-c2cc(F)c(F)cc2NC2COC2)nc(C(N)=O)c1N [Compound 497]	52 nM	–
Cc1ccc(Cl)c(Nc2ncccc2-c2nc(C(N)=O)c(N)c(-c3c(C)ccc4[nH]ncc34)n2)n1 [Compound 716]	13 nM	–
Cc1ccc2[nH]ncc2c1-c1nc(-c2cccnc2Nc2ccccc2Cl)nc(C(N)=O)c1N [Compound 629]	160 nM	–
Cc1cnc(C)c(Nc2cc(F)ccc2-c2nc(C(N)=O)c(N)c(-c3c(C)ccc4[nH]ncc34)n2)n1 [Compound 719]	55 nM	–
Cc1ccc(-c2nc(C(N)=O)c(N)c(-c3c(C)ccc4[nH]ncc34)n2)c(Nc2ncccc2C)n1 [Compound 687]	3 nM	–
Cc1cnc(Cl)c(Nc2ncccc2-c2nc(C(N)=O)c(N)c(-c3c(C)ccc4[nH]ncc34)n2)n1 [Compound 744]	8 nM	–
Cc1ccc(F)c(Nc2ncccc2-c2nc(C(N)=O)c(N)c(-c3c(Cl)ccc4[nH]ncc34)n2)n1 [Compound 798]	–	IC50 (2 h, 2 hours with compound): 5 nM
Cc1ccc2[nH]ncc2c1-c1nc(-c2cccnc2NC[C@H]2CCO2)nc(C(N)=O)c1N [Compound 649]	> 10000 nM	–

SMILES	IC50 (2 h, 2 h compound incubation)	also measured
Cc1ccc2[nH]ncc2c1-c1nc(-c2cccnc2Nc2cccc(S(N)(=O)=O)c2)nc(C(N)=O)c1N [Compound 631]	96 nM	–
CCc1ccc(-c2nc(C(N)=O)c(N)c(-c3c(C)ccc4[nH]ncc34)n2)c(Nc2ncccc2F)n1 [Compound 975]	–	IC50 (2 h, 2 hours with compound): 14 nM
COc1ccnc(Nc2cc(F)ccc2-c2nc(C(N)=O)c(N)c(-c3c(C)ccc4[nH]ncc34)n2)n1 [Compound 570]	111 nM	–
Cc1ccc2[nH]ncc2c1-c1nc(-c2ccc(F)nc2Nc2nc(F)ccc2F)nc(C(N)=O)c1N [Compound 921]	–	IC50 (2 h, 2 hours with compound): 4 nM
Cc1ccc2[nH]ncc2c1-c1nc(-c2cc(F)cnc2NC2CCN(CC(F)(F)F)CC2)nc(C(N)=O)c1N [Compound 863]	–	IC50 (2 h, 2 hours with compound): 2080 nM
COc1c(C(N)=O)nc(-c2cccnc2Nc2nc(F)ccc2F)nc1-c1c(C)ccc2[nH]ncc12 [Compound 963, 2-(2-((3,6-difluoropyridin-2-yl)amino)pyridin-3-yl)-5-methoxy-6-(5-methyl-1H-indazol-4-yl)pyrimidine-4-carboxamide]	–	IC50 (2 h, 2 hours with compound): > 10000 nM
Cc1ccc2[nH]ncc2c1-c1nc(-c2ccc(F)cc2Nc2ncccc2F)nc(C(N)=O)c1N [Compound 527]	11 nM	–
Cc1ccc2[nH]ncc2c1-c1nc(-c2ccc(C#N)nc2NC2CCOCC2)nc(C(N)=O)c1N [Compound 810]	–	IC50 (2 h, 2 hours with compound): 96 nM
Cc1cc(F)c2[nH]ncc2c1-c1nc(-c2cc(F)cnc2N[C@H]2CCOC[C@H]2F)nc(C(N)=O)c1N [Compound 887]	–	IC50 (2 h, 2 hours with compound): 104 nM
Cc1ccc2[nH]ncc2c1-c1nc(-c2cc(F)cnc2NC2CC2)nc(C(N)=O)c1N [Compound 680]	14 nM	–
Cc1c(F)cc2[nH]ncc2c1-c1nc(-c2ccc(C(F)F)nc2Nc2ncccc2F)nc(C(N)=O)c1N [Compound 855]	–	IC50 (2 h, 2 hours with compound): 13 nM
Cc1ccc2[nH]ncc2c1-c1nc(-c2ccc(F)cc2Nc2cccc(C#N)c2)nc(C(N)=O)c1N [Compound 580, 5-amino-2-(2-((3-cyanophenyl)amino)-4-fluorophenyl)-6-(5-methyl-1H-indazol-4-yl)pyrimidine-4-carboxamide]	44 nM	–
Cc1ccc2[nH]ncc2c1-c1nc(-c2cccnc2Nc2ncccn2)nc(C(N)=O)c1N [Compound 726]	120 nM	–
COc1ccccc1Nc1ncccc1-c1nc(C(N)=O)c(N)c(-c2c(C)ccc3[nH]ncc23)n1 [Compound 632]	601 nM	–
Cc1ccc2[nH]ncc2c1-c1nc(-c2cc(F)c(F)cc2NCC2(C#N)CC2)nc(C(N)=O)c1N [Compound 517]	139 nM	–
[2H]C([2H])([2H])c1ccc2[nH]ncc2c1-c1nc(-c2ccc(Cl)nc2Nc2ncccn2)nc(C(N)=O)c1N [Compound 946]	–	IC50 (2 h, 2 hours with compound): 51 nM
CC(=O)N1CCN(c2nccc(-c3cc(-c4c(C)ccc5[nH]ncc45)c(N)c(C(N)=O)n3)n2)CC1 [Compound 215]	–	IC50 (2 h, 2 h incubation): 399 nM
[2H]C([2H])([2H])c1ccc2[nH]ncc2c1-c1nc(-c2ccc(C3CC3)nc2Nc2ncccc2F)nc(C(N)=O)c1N [Compound 47]	–	IC50 (2 h, 2 h incubation): 13 nM
Cc1ccc(O)c(C)c1-c1nc(-c2ccnnc2)cc(C(N)=O)c1N [Compound 77]	–	IC50 (2 h incubation): 179 nM
Cc1ccc2[nH]ncc2c1-c1nc(-c2ccc(F)cc2Nc2cnccc2C#N)nc(C(N)=O)c1N [Compound 699]	48 nM	–
